Format in all cases: functional, cell-based
Common to all, as to conditions: mcf7r

In series [1] the target is T1, ATP-dependent translocase ABCB1 (Homo sapiens, UniProt P08183). Briefly: TP_TRANSPORTER: efflux of 3uM mitoxantrone in the presence of tRA96023 at a concentration of 10uM in MCF7/R cells.
Series [2] concerns the target T1, ATP-dependent translocase ABCB1. The experiment in a line: TP_TRANSPORTER: efflux of 3uM mitoxantrone by Fumitremorgin C at 10uM in MCF7/R cells.
For series [3] the target is unchanged. Briefly: TP_TRANSPORTER: efflux of mitoxantrone (Mitoxantrone: 3uM) in the presence of Ortataxel at a concentration of 10uM in MCF7/R cells.
The target is the same in series [4]. The experiment in a line: TP_TRANSPORTER: efflux of 3uM mitoxantrone in the presence of Probenecid at 1mM in MCF7/R cells.
Series [5] has the same target. Briefly: TP_TRANSPORTER: efflux of 3uM mitoxantrone in the presence of PSC-833 (Valspodar) at a concentration of 2.5uM in MCF7/R cells.

T1 sequence (P08183 whole entry): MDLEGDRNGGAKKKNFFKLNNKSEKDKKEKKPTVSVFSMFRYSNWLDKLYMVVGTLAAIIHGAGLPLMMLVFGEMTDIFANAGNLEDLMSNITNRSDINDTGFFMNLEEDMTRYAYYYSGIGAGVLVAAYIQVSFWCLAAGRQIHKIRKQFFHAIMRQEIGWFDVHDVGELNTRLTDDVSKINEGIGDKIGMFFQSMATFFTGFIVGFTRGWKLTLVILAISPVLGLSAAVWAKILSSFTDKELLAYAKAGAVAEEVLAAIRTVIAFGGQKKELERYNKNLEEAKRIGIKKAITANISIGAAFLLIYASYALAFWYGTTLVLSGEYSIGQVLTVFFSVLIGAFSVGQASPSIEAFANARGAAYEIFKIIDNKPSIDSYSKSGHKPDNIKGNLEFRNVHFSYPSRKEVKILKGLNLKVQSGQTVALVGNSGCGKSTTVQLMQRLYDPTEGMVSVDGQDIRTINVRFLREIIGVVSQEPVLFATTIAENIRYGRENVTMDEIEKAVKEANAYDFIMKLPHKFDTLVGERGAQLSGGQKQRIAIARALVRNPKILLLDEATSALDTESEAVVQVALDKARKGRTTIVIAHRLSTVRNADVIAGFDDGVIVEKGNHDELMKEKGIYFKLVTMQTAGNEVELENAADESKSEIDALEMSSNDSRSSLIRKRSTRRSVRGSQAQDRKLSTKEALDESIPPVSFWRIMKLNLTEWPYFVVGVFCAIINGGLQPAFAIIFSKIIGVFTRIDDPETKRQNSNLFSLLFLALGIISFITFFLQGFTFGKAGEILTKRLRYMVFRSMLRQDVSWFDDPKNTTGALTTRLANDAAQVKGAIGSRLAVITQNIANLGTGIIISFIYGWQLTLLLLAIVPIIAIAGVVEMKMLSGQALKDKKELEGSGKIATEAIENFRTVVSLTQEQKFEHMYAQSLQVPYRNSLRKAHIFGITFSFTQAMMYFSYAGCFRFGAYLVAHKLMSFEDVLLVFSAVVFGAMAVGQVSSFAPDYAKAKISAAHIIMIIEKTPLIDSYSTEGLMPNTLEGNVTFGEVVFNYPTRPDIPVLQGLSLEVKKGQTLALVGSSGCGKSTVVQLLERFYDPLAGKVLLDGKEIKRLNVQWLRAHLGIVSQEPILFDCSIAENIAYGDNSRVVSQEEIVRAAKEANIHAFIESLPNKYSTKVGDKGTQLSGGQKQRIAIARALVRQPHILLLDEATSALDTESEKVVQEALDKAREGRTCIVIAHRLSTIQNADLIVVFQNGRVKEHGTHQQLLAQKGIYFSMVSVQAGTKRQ

Take `CC(=O)O[C@H]1C(=O)[C@@]2(C)C([C@H](OCc3ccccc3)C3(O)C[C@H](OC(C)=O)C(C)=C1C3(C)C)[C@]1(OC(C)=O)CO[C@@H]1C[C@@H]2OC(=O)/C=C/c1ccc(C(=O)c2ccccc2)cc1` (stereo not given in full): the Activity entry in series [1] is “inhibitor [+]”.
For `COc1ccc2c3c([nH]c2c1)[C@H](C=C(C)C)N1C(=O)[C@@H]2CCCN2C(=O)[C@@H]1C3` [FUMITREMORGIN], in series [2], the Activity result is “is not an inhibitor [-]”.
For `CC(=O)O[C@H]1C(=O)[C@@]2(C)[C@H]([C@H](OC(=O)c3ccccc3)[C@]34OC(=O)O[C@H]3[C@H](OC(=O)[C@H](O)[C@H](CC(C)C)NC(=O)OC(C)(C)C)C(C)=C1C4(C)C)[C@]1(OC(C)=O)CO[C@@H]1C[C@@H]2O` [ORTATAXEL], the Activity result in series [3] was “inhibitor [+]”.
Turning to `CCCN(CCC)S(=O)(=O)c1ccc(C(=O)O)cc1` [PROBENECID], the Activity entry in series [4] was “is not an inhibitor [-]”.
For `C/C=C/C[C@@H](C)C(=O)[C@H]1C(=O)N[C@@H](C(C)C)C(=O)N(C)CC(=O)N(C)[C@@H](CC(C)C)C(=O)N[C@@H](C(C)C)C(=O)N(C)[C@@H](CC(C)C)C(=O)N[C@@H](C)C(=O)N[C@H](C)C(=O)N(C)[C@@H](CC(C)C)C(=O)N(C)[C@@H](CC(C)C)C(=O)N(C)[C@@H](C(C)C)C(=O)N1C` [VALSPODAR], the Activity entry in series [5] was “inhibitor [+]”.

Values taken from ChEMBL document CHEMBL2073915, “Broad-spectrum modulation of ATP-binding cassette transport proteins by the taxane derivatives ortataxel (IDN-5109, BAY 59-8862) and tRA96023” (Cancer Chemother Pharmacol, 2004).
